In assay [1] the target is T1, Gag-Pol polyprotein [600-1027,Y780C]/[600-1155,Y780C] (Human immunodeficiency virus 1, UniProt P03366, Y780C).
T1 construct: 600-1027; 600-1155
The experiment in a line: HIV-1 RT Assay.

For assay [2], the target named is T2, Gag-Pol polyprotein [600-1027,R876K]/[600-1155] (Human immunodeficiency virus 1, UniProt P03366, R876K).
T2 construct: 600-1027; 600-1155
The experiment in a line: HIV-1 RT Assay.

In the case of `CCN1c2ncccc2C(=O)Nc2c(C)cc(NCCO)nc21` [2-ethyl-5-[(2-hydroxyethyl)amino]-7-methyl-2,4,9,15-tetraazatricyclo[9.4.0.0^{3,8}]pentadeca-1(11),3,5,7,12,14-hexaen-10-one], the IC50 (in general, the concentration that gives 50% inhibition) in assay [1] was over 1 µM.
As to `CCN1c2ncccc2C(=O)N(C)c2ccc(-c3nccs3)nc21` [5,11-dihydro-11-ethyl-5-methyl-2-(2-thiazolyl)-6H-dipyrido[3,2-b:2 ,3-e][1,4]diazepin-6-one], the IC50 in assay [1] was 1.1 µM; in assay [2] it was 0.38 µM.
For `CCN1c2ncccc2C(=O)N(C)c2ccc(N3CCCCC3)nc21` [2-ethyl-9-methyl-5-(piperidin-1-yl)-2,4,9,15-tetraazatricyclo[9.4.0.0^{3,8}]pentadeca-1(11),3,5,7,12,14-hexaen-10-one], the IC50 in assay [1] was over 1 µM.
The same measure, in the same setting: the same measure for `CCN1c2ncccc2C(=O)Nc2c(C)cc(NCCCO)nc21` [2-ethyl-5-[(3-hydroxypropyl)amino]-7-methyl-2,4,9,15-tetraazatricyclo[9.4.0.0^{3,8}]pentadeca-1(11),3,5,7,12,14-hexaen-10-one]: over 1 µM.
The compound `CCN1c2ncccc2C(=O)N(C)c2ccc(-c3cccc(N)c3)nc21` [5,11-dihydro-11-ethyl-5-methyl-2-(3-aminophenyl)-6H-dipyrido[3,2-b:2 ,3-e][1,4]diazepin-6-one] returned an IC50 in assay [2] of 0.07 µM.
Regarding `CCN1c2ncccc2C(=O)Nc2c(C)cc(N3CCSCC3)nc21` [2-ethyl-7-methyl-5-(thiomorpholin-4-yl)-2,4,9,15-tetraazatricyclo[9.4.0.0^{3,8}]pentadeca-1(11),3,5,7,12,14-hexaen-10-one], the IC50 in assay [1] was over 1 µM.
Take `CCN1c2ncccc2C(=O)N(C)c2ccc(-c3cccc(O)c3)nc21` [2-ethyl-5-(3-hydroxyphenyl)-9-methyl-2,4,9,15-tetraazatricyclo[9.4.0.0^{3,8}]pentadeca-1(11),3,5,7,12,14-hexaen-10-one]: 0.1 µM corresponded to half-maximal inhibition in assay [2] (IC50). This counts as sub-micromolar.
On to `CCN1c2ncccc2C(=O)Nc2c(C)cc(SC)nc21` [2-ethyl-7-methyl-5-(methylsulfanyl)-2,4,9,15-tetraazatricyclo[9.4.0.0^{3,8}]pentadeca-1(11),3,5,7,12,14-hexaen-10-one], for which the IC50 in assay [1] is over 1 µM.
As for `CCN1c2ncccc2C(=O)N(C)c2ccc(N)nc21` [5-amino-2-ethyl-9-methyl-2,4,9,15-tetraazatricyclo[9.4.0.0^{3,8}]pentadeca-1(11),3,5,7,12,14-hexaen-10-one], the IC50 in assay [1] and in assay [2] was over 1 µM in each case.
Turning to `CCN1c2ncccc2C(=O)N(C)c2ccc(-c3ccccn3)nc21` [2-ethyl-9-methyl-5-(pyridin-2-yl)-2,4,9,15-tetraazatricyclo[9.4.0.0^{3,8}]pentadeca-1(11),3,5,7,12,14-hexaen-10-one], it took 0.18 µM to reach half-maximal inhibition in assay [2] (IC50).
In turn, `CCN1c2ncccc2C(=O)N(C)c2cccnc21` displayed an IC50 in assay [2] (pH 7.8, 25 °C) of 0.13 µM.
As for `CCN1c2ncccc2C(=O)N(C)c2ccc(-c3cnco3)nc21` [2-ethyl-9-methyl-5-(1,3-oxazol-5-yl)-2,4,9,15-tetraazatricyclo[9.4.0.0^{3,8}]pentadeca-1(11),3,5,7,12,14-hexaen-10-one], the figures for the IC50 in assay [1] and in assay [2] were 0.82 µM and 0.22 µM, respectively.
`CCN1c2ncccc2C(=O)Nc2c(C)cc(C(C)C)nc21` [2-ethyl-7-methyl-5-(propan-2-yl)-2,4,9,15-tetraazatricyclo[9.4.0.0^{3,8}]pentadeca-1(11),3,5,7,12,14-hexaen-10-one]: in assay [1] (pH 7.8, 25 °C), the IC50 is over 1 µM.
Regarding `CN1C(=O)c2cccnc2N(C2CC2)c2nc(Cl)ccc21` [5-chloro-2-cyclopropyl-9-methyl-2,4,9,15-tetraazatricyclo[9.4.0.0^{3,8}]pentadeca-1(11),3,5,7,12,14-hexaen-10-one], the IC50 in assay [2] (pH 7.8, 25 °C) stood at 0.09 µM.
For `CCN1c2ncccc2C(=O)N(C)c2ccc(-c3ncco3)nc21` [2-ethyl-9-methyl-5-(1,3-oxazol-2-yl)-2,4,9,15-tetraazatricyclo[9.4.0.0^{3,8}]pentadeca-1(11),3,5,7,12,14-hexaen-10-one], the IC50 in assay [1] was found to be 0.56 µM; in assay [2], 0.11 µM.
As for `CCN1c2ncccc2C(=O)Nc2c(C)cc(C)nc21` [2-ethyl-5,7-dimethyl-2,4,9,15-tetraazatricyclo[9.4.0.0^{3,8}]pentadeca-1(11),3,5,7,12,14-hexaen-10-one], the IC50 in assay [1] (pH 7.8, 25 °C) was over 1 µM.
As for `CCN1c2ncccc2C(=O)N(C)c2ccc(-c3cncs3)nc21` [2-ethyl-9-methyl-5-(1,3-thiazol-5-yl)-2,4,9,15-tetraazatricyclo[9.4.0.0^{3,8}]pentadeca-1(11),3,5,7,12,14-hexaen-10-one], the results for the IC50 in assay [1] and in assay [2] were 0.24 µM and 0.1 µM, respectively.
For `CCN1c2ncccc2C(=O)Nc2c(C)cc(C(C)(C)C)nc21` [5-tert-butyl-2-ethyl-7-methyl-2,4,9,15-tetraazatricyclo[9.4.0.0^{3,8}]pentadeca-1(11),3,5,7,12,14-hexaen-10-one], the IC50 in assay [1] (pH 7.8, 25 °C) is over 1 µM; in assay [2] (pH 7.8, 25 °C) it was over 1 µM.
`CCN1c2ncccc2C(=O)Nc2c(C)cc(N(C)CCO)nc21` [2-ethyl-5-[(2-hydroxyethyl)(methyl)amino]-7-methyl-2,4,9,15-tetraazatricyclo[9.4.0.0^{3,8}]pentadeca-1(11),3,5,7,12,14-hexaen-10-one] showed an IC50 in assay [1] of over 1 µM.
On to `CCC=Nc1ccc2c(n1)N(CC)c1ncccc1C(=O)N2C`, for which the IC50 in assay [1] was over 1 µM; in assay [2] it was 0.39 µM.
For the compound `CCN1c2ncccc2C(=O)N(C)c2ccc(-c3ccsc3)nc21` [2-ethyl-9-methyl-5-(thiophen-3-yl)-2,4,9,15-tetraazatricyclo[9.4.0.0^{3,8}]pentadeca-1(11),3,5,7,12,14-hexaen-10-one], inhibition in assay [2] was half-maximal at 0.1 µM (IC50). This lies in the sub-micromolar range.
For the compound `CCN1c2ncccc2C(=O)N(C)c2ccc(=O)[nH]c21` [2-ethyl-5-hydroxy-9-methyl-2,4,9,15-tetraazatricyclo[9.4.0.0^{3,8}]pentadeca-1(11),3,5,7,12,14-hexaen-10-one], the IC50 in assay [1] was over 1 µM.

The record behind these values is BindingDB's records for doi:10.1021/jm00024a010 (Boehringer Ingelheim Pharmaceuticals, 1995).
